This is an account of results in a melting point compilation (Tetko et al.; mined from patent text by program, amines drawn as free bases though some values may be those of a salt).

Structures are written as SMILES. Residues, ends and D or L forms follow the SMILES beside them. *: point of attachment. For = O=C*

`CC(C)(C)OC(=O)CN1CCN(c2ccncc2)C1=O` returned a melting point of 147 to 148 °C.

The compound `CCOc1c(C)c(C)c(OC)c(CN(C)CCOc2cc(C)ccc2C(C)C)c1C` gave a melting point of 115 to 120 °C.

As for `CN(O)C(=O)C=Cc1cccc(Oc2ccccc2)c1`, the melting point lay within 124 to 125 °C.

For `Cn1ncnc1COc1nc2c(-c3ccc(F)cc3)nncn2c1-c1ccccc1`, the melting point was determined as 130 °C.

Turning to `COc1ccc(CNc2nc(Cl)nc(Cl)c2C(=O)O)cc1Cl`, the melting point was in the range of 150 to 151 °C.

Consider `Clc1ccc2nc(-c3ccsc3)c(I)n2n1`, for which the melting point is 203 to 206 °C.

`N=C(Cc1ccccc1)N1CC2C(=O)CCC(c3ccccc3)(c3ccccc3)C2C1` (stereo not given): the melting point stood at 195 °C.

Compound `COc1cc(C#N)c(C(C)=O)cc1[N+](=O)[O-]` yielded a melting point of 224 to 226 °C.

As to `Cc1ccc2c(c1)C1(COc3cc4c(cc31)OCCO4)C(=O)N2Cc1ncccc1C(F)(F)F` (stereo not given), the melting point lay in the range of 137 to 139 °C.

In turn, `C=CCn1c(C)nc2c1CC(C(=O)OCC)CC2=O` (stereo not given) gave a melting point of 95 to 97 °C.

The compound `Cc1c(C=NO)c2ccccc2n1C(=O)c1ccc(Cl)cc1` returned a melting point of 152 °C.

Turning to `O=C(O)CC[C@@H](C(=O)OCc1ccccc1)n1c2ccccc2c2ccccc21`, the melting point worked out at 100 °C.

Consider `CC(C)(C)CC(=O)Nc1ccc2ncn3c(=O)c(C(=O)O)cnc3c2c1`, for which the melting point lay in the range of 304 to 306 °C.

The compound `CCOC(=O)[C@H](C)NCC(=O)Nc1c2c(nc3ccccc13)CCCC2` came in with a melting point of 101 to 102 °C.

Compound `CS(=O)(=O)N=C(NCCSCc1ccco1)Oc1ccccc1O` displayed a melting point of 110 to 112 °C.

In turn, `O=C1NCN(c2ccccc2)C12CCN(C[C@@H]1CCc3ccc(Cl)cc3[C@H]1O)CC2` (relative stereo) gave a melting point of 248 to 249 °C.

Compound `COC(COc1ccc(C(=O)NCC(NC(=O)OCc2ccccc2)C(=O)OC(C)(C)C)cc1)OC` (stereo not given) showed a melting point of 115 °C.

`COc1ccc2c(c1)C(=O)c1sc(-c3ccccc3)nc1C2=O` displayed a melting point of over 260 °C.

In turn, `CC1CN(c2c(F)cc3c(=O)c(C(=O)O)cn(CCF)c3c2F)CC1CN` (stereo not given) showed a melting point of 228 to 232 °C.

The compound `NC(=O)NCCS(=O)Cc1ccccc1` (stereo not given) came in with a melting point of 110 °C.

`COc1ccc(C2(C3CCCCC3=O)CCC(=O)CC2)c2c1OCCO2` (stereo not given) returned a melting point of 268 to 269 °C.

With `CCOc1c(OC)cc(C(=O)O)c(-c2c(C(=O)O)cc(OC)c3c2OCO3)c1OCC`, the melting point fell in the range of 262 to 263 °C.

For the compound `CC(=O)C(=CS(=O)(=O)NC(C)C)c1cccc([N+](=O)[O-])c1`, the melting point fell in the range of 153 to 157 °C.

Take `CC(C)(C)CNc1cc(N2CCNCC2)nc(N2CCCC2)n1`: the melting point fell in the range of 140 to 145 °C.

In turn, `Fc1ccc(-c2cncc(CNCCOc3cccc4ccccc34)c2)cc1` came in with a melting point of 92 to 94 °C.

Take `O=CNC(CC(=O)O)C(=O)NC(Cc1ccccc1)C(=O)O` (stereo not drawn) (For-Asp-Phe-OH; configuration not given here): the melting point lay within 180 to 182 °C.

Turning to `CCOc1cc2cc(CO)c(CO)c(-c3ccnc(-n4nc(-c5cccnc5)c5ccccc5c4=O)c3)c2cc1OCC`, the melting point came to 222 °C.

Consider `COc1ccc(Cn2c(O)nc3c(N)nc4ccccc4c32)cc1`, for which the melting point was over 260 °C.

As to `CCn1ncc2c3onc(-c4cccc(F)c4)c3cnc21`, the melting point is 136 to 137 °C.

On to `CCOC(=O)CC(=O)c1ccc(N)cc1`, for which the melting point was in the range of 82 to 84 °C.

`CCCCOC(=O)N1CCSCC1`: the melting point was in the range of 72.9 to 78.9 °C.

As for `CC(C)(C)OC(=O)N1CC(CCl)c2c1ccc1ccc(S(=O)(=O)N(Cc3ccccc3)Cc3ccccc3)cc21` (stereo not given), the melting point was 131 to 133 °C.

The compound `CCOC(=O)c1cnn2c1c(SC)nc1c(C)nn(C)c12` had a melting point of 86 to 87 °C.

For `CCOC(=O)c1c(C)[nH]c(C)c1CC`, the melting point was 105 to 107 °C.

With `CC1CCN(C2C3=CC(OC3=O)C3C(CC4(C)OC4C2O)OC(=O)C3C)CC1` (stereo not given), the melting point was found to be 210 °C.

In turn, `OCCCNc1cc(-n2cccn2)nc(-c2cccs2)n1` came in with a melting point of 130 to 131 °C.

Compound `Cc1oc(C=Cc2ccccc2Cl)nc1CC#N` yielded a melting point of 89 to 90 °C.

As to `O=C(N1CCc2cc(S(=O)(=O)Cl)ccc2C1)C(F)(F)F`, the melting point lay in the range of 110 to 112 °C.

As for `O=C(O)CCCCOc1cccc2occc12`, the melting point was 108 °C.

In turn, `CC(=O)c1cccc(NC(=O)c2ccc3c(c2)CC(COCc2ccccc2)O3)c1O` (stereo not given) came in with a melting point of 103 to 105 °C.

`COc1cc(OC)nc(NC(=O)NS(=O)(=O)Nc2ccc(F)cc2C(=O)C2CC2)n1` gave a melting point of 76 to 78 °C.

In turn, `CCCCC(CC)C(=O)Nc1ccc2ccn(Cc3ccc(C(=O)OC)c4ccoc34)c2c1` (stereo not given) returned a melting point of 164 to 167 °C.

Regarding `Cc1cc2ncc(Nc3ccc(Cl)c(Cl)c3)nc2cc1C`, the melting point stood at 229 °C.

In the case of `Cc1cc(S(=O)(=O)C[N+](=O)[O-])c(C)cc1Cl`, the melting point lay within 113 to 114 °C.

For the compound `O=[N+]([O-])c1ccc2c(ccn2Cc2cccnc2)c1`, the melting point fell in the range of 131 to 134 °C.

As for `COC(=O)C=C(C)NCC(O)CO` (stereo not given), the melting point was in the range of 109 to 111 °C.

Consider `CC(C)(C)OC(=O)OC(=O)c1ccc(NNC(N)=S)cc1`, for which the melting point is 161 to 163 °C.

As for `CC(C)CC(NC(=O)C(Cc1c[nH]cn1)NC(=O)C(CC(=O)NCCc1ccccc1)Cc1cccc2ccccc12)C(O)CO` (mixture of isomers), the melting point lay in the range of 101 to 107 °C.

For `CC(C)(C)OC(=O)CC1(SN=O)C2CC3CC(C2)CC1C3` (stereo not given), the melting point lay in the range of 85 to 87 °C.

In turn, `CC12CCC3c4ccc(O)cc4CCC3C1CCC2=CCl` (stereo not given) yielded a melting point of 130 to 133 °C.

`Cc1csc(C)c1NCc1nnc(S)n1C`: the melting point was in the range of 184 to 187 °C.

Turning to `O=C(OC(F)C(F)F)c1cnccn1` (stereo not given), the melting point was 46 to 48 °C.

`CCNCC1CCN(c2nc3c(cc2F)c(=O)c(C(=O)O)cn3CC)C1` (stereo not given): the melting point is 230 to 232 °C.

On to `CS(=O)(=O)Nc1ccc(NC(=O)C(=O)O)cc1`, for which the melting point is over 260 °C.

For `Cc1nccn1CCNC(=O)c1cccc2oc(-c3ccccc3)nc12`, the melting point lay within 125 to 127 °C.

In turn, `CCc1cccc(C)c1CNc1cc(Br)cc2c1nc(C)n2COCc1ccccc1` yielded a melting point of 117 to 119 °C.

Take `O=C1CNC(=O)C(CCCCNC(=O)OCc2ccccc2)N1` (stereo not given): the melting point came to 210 °C.

`COc1ccc2ncc3c(=O)n(-c4ccccc4)oc3c2c1` yielded a melting point of 140 °C.

In turn, `CCC(=O)c1ccc(O)c(C)c1` registered a melting point of 83 to 85 °C.

With `CCOCC1OC(n2cnc3c(NCc4cccc(I)c4)nc(Cl)nc32)C(O)C1O` (stereo not given), the melting point was 80 to 82 °C.

For the compound `CC(C(=O)O)c1ccc(CC2CCCC2=NO)cc1` (stereo not given), the melting point was in the range of 146 to 148 °C.

Consider `Cc1ccc(S(=O)(=O)Cl)c(C)c1NC(=O)CCl`, for which the melting point lay within 148 to 149 °C.

Regarding `Oc1ccc(-c2ccc(C(F)(F)F)cc2)cn1`, the melting point lay in the range of 178 to 182 °C.

For the compound `CCn1nnnc1SCc1c(S(C)(=O)=O)ccc(C(=O)OC)c1Cl`, the melting point lay within 109 to 110 °C.

Compound `COc1cccc(Nc2nc(N)nc3c2-c2ccccc2C3)c1` displayed a melting point of 187 °C.
